According to US6451803B1, “N-acyl and n-aroyl aralkyl amides useful in treating seritonergic disorders” (Pfizer INC, priority 1998, dated 2002):

SMILES: CN1CCN(c2ccccc2CCNC(=O)c2ccc(Cl)c(Cl)c2)CC1.Cl.O (hydrate or solvate)
- melting point: 110 to 120 °C
